Data as given in the supplement of paper PMC10307832.

compound: CC1(C)CNc2cc(NC(=O)c3cccnc3NCc3ccncc3)ccc21 [Motesanib] + Cc1nc(NC(=O)N2CCC[C@H]2C(N)=O)sc1-c1ccnc(C(C)(C)C(F)(F)F)c1 [Alpelisib] (partner 2 µM); test: relative viability (nuclei count vs DMSO), 5 days (fraction); higher = more cells survive; settings: first compound 0.01 µM
Method in brief: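 Lung cancer cell lines in 1536-well plates were dosed by pin tool the day after seeding, either with one drug alone or with a fixed anchor-drug dose plus five library-drug doses (not always all listed) in √10 steps. After 5 days, cells were fixed and their nuclei stained in one step (final 0.05% Triton X-100, 1% formaldehyde, 1 ug/ml Hoechst), then counted on 4× images. Relative viability is the nuclei count in treated wells divided by that in vehicle wells. Values are medians of duplicate plates.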

| Cell Line | relative viability |
| --- | --- |
| NCI-H1395 | 1.04 |
| 201T | 1.08 |
| NCI-H1915 | 1.02 |
| HCC-827 | 0.99 |
| LXF-289 | 0.983 |
| NCI-H23 | 0.798 |
| NCI-H647 | 1.02 |
| CAL-12T | 1.22 |
| NCI-H1651 | 0.987 |
| EPLC-272H | 0.908 |
| NCI-H2228 | 0.767 |
| NCI-H1792 | 0.702 |
| NCI-H1355 | 0.825 |
| NCI-H3122 | 0.789 |
| NCI-H1437 | 0.983 |
| NCI-H1755 | 0.879 |
| NCI-H2023 | 0.628 |
| HCC-15 | 0.97 |
| NCI-H1793 | 0.795 |
| PC-14 | 0.958 |
| EKVX | 0.778 |
| LC-2-ad | 0.801 |
| NCI-H1944 | 0.785 |
| NCI-H1975 | 0.681 |
| RERF-LC-KJ | 0.814 |
| NCI-H358 | 0.949 |
| NCI-H650 | 0.925 |
| PC-3 [JPC-3] | 1.09 |

same assay, conditions: first compound 0.03162 µM

| Cell Line | relative viability |
| --- | --- |
| A-427 | 1.08 |
| NCI-H441 | 0.998 |
| NCI-H661 | 0.608 |
| NCI-H1734 | 0.608 |
| NCI-H460 | 0.495 |
| NCI-H2347 | 1 |
| SK-LU-1 | 1.07 |
| NCI-H1395 | 0.922 |
| 201T | 1.05 |
| NCI-H1915 | 1.02 |
| HCC-827 | 1.01 |
| LXF-289 | 1.05 |
| NCI-H23 | 0.481 |
| NCI-H647 | 1.21 |
| CAL-12T | 1.31 |
| NCI-H1651 | 0.909 |
| EPLC-272H | 1.12 |
| NCI-H2228 | 0.713 |

| Cell Line | relative viability |
| --- | --- |
| NCI-H1792 | 0.63 |
| NCI-H1355 | 0.831 |
| NCI-H3122 | 0.79 |
| NCI-H1437 | 0.979 |
| NCI-H1755 | 0.905 |
| NCI-H2023 | 0.669 |
| HCC-15 | 0.885 |
| NCI-H1793 | 0.673 |
| PC-14 | 1.03 |
| EKVX | 0.883 |
| LC-2-ad | 0.919 |
| NCI-H1944 | 0.853 |
| NCI-H1975 | 0.588 |
| RERF-LC-KJ | 0.805 |
| NCI-H358 | 0.938 |
| NCI-H650 | 0.85 |
| PC-3 [JPC-3] | 1.03 |

same assay, conditions: first compound 0.1 µM

| Cell Line | relative viability |
| --- | --- |
| A-427 | 1.05 |
| NCI-H441 | 1.03 |
| NCI-H661 | 0.683 |
| NCI-H1734 | 0.719 |
| NCI-H460 | 0.484 |
| NCI-H2347 | 1.14 |
| SK-LU-1 | 1.17 |
| NCI-H1395 | 0.992 |
| 201T | 1.01 |
| NCI-H1915 | 1.03 |
| HCC-827 | 1.03 |
| LXF-289 | 1.06 |
| NCI-H647 | 1.1 |
| CAL-12T | 1.26 |
| NCI-H1651 | 0.823 |
| EPLC-272H | 0.898 |
| NCI-H2228 | 0.722 |

| Cell Line | relative viability |
| --- | --- |
| NCI-H1792 | 0.78 |
| NCI-H1355 | 0.937 |
| NCI-H3122 | 0.915 |
| NCI-H1437 | 0.901 |
| NCI-H1755 | 1.02 |
| NCI-H2023 | 0.68 |
| HCC-15 | 0.969 |
| NCI-H1793 | 0.75 |
| PC-14 | 0.998 |
| EKVX | 0.875 |
| LC-2-ad | 0.923 |
| NCI-H1944 | 0.89 |
| NCI-H1975 | 0.615 |
| RERF-LC-KJ | 0.854 |
| NCI-H358 | 0.88 |
| NCI-H650 | 1.14 |
| PC-3 [JPC-3] | 1.07 |

same assay, conditions: first compound 0.3162 µM

| Cell Line | relative viability |
| --- | --- |
| A-427 | 1.09 |
| NCI-H441 | 0.636 |
| NCI-H661 | 0.641 |
| NCI-H1734 | 0.72 |
| NCI-H460 | 0.424 |
| NCI-H2347 | 1.09 |
| SK-LU-1 | 0.93 |
| NCI-H1395 | 0.998 |
| 201T | 0.857 |
| NCI-H1915 | 1.02 |
| HCC-827 | 1.03 |
| LXF-289 | 1.05 |
| NCI-H23 | 0.639 |
| NCI-H647 | 1.33 |
| CAL-12T | 1.44 |
| NCI-H1651 | 0.883 |
| EPLC-272H | 0.897 |
| NCI-H2228 | 0.777 |

| Cell Line | relative viability |
| --- | --- |
| NCI-H1792 | 0.757 |
| NCI-H1355 | 0.933 |
| NCI-H3122 | 0.921 |
| NCI-H1437 | 1.02 |
| NCI-H1755 | 1.03 |
| NCI-H2023 | 0.619 |
| HCC-15 | 0.972 |
| NCI-H1793 | 0.761 |
| PC-14 | 0.931 |
| EKVX | 0.922 |
| LC-2-ad | 1.03 |
| NCI-H1944 | 0.885 |
| NCI-H1975 | 0.61 |
| RERF-LC-KJ | 0.642 |
| NCI-H358 | 0.839 |
| NCI-H650 | 1.09 |
| PC-3 [JPC-3] | 1.09 |

same assay, conditions: first compound 1 µM

| Cell Line | relative viability |
| --- | --- |
| A-427 | 1.04 |
| NCI-H441 | 0.847 |
| NCI-H661 | 0.882 |
| NCI-H1734 | 0.746 |
| NCI-H460 | 0.478 |
| NCI-H2347 | 1.18 |
| SK-LU-1 | 1.05 |
| NCI-H1395 | 1.02 |
| 201T | 1.06 |
| NCI-H1915 | 1.06 |
| HCC-827 | 1.03 |
| LXF-289 | 1.04 |
| NCI-H23 | 0.603 |
| NCI-H647 | 1.09 |
| CAL-12T | 1.11 |
| NCI-H1651 | 1.06 |
